Tests used:
Assay type in all cases: in vivo, Musa
bananas [1] = test: Example 2X: evaluation process X (extended storage at 14° C.); conditions: non-zero 1-MCP
Source text: (§1) Bananas were harvested at 13 weeks of age. Fruit bunches were separated into hands, then washed, and excess latex was removed in chlorinated water tanks using standard commercial practices. The washed hands of bananas were further broken into clusters and treated with fungicide. Clusters were placed into plastic bags; each bag held approximately 1.4 kg (3 lbs) of bananas. The bananas remained in these bags until they were removed for evaluation (see below).
(§2) At day 5 at approximately 4 pm, the bananas had reached color stage 2.5 to 3.5. Treatment groups PE-3-C, PE-10-C, MAP-3, and MAP-10 were then exposed to 1-MCP overnight at the concentrations shown above.
Some of the bananas from each group described in Example 2 were evaluated by process “X” as follows: After treatment groups PE-3-C, PE-10-C, MAP-3, and MAP-10 received exposure to 1-MCP, the bananas remained in their bags and were held at approximately 14° C. The bananas were inspected daily while they remained in the bags.

bananas [2] = test: Example 1: bananas bagged at harvest, shipped, ethylene-ripened, exposed 12 hr to MCP, stored at approx. 20° C.; sugar spots, color, shelf life; parameters: key to Sugar Spot Ratings: 0 = no spots, 1 = few, 2 = moderate, 3 = severe spots (group average)
Source text: Each cluster of bananas was rated daily for sugar spots. Clusters were rated using the following scale:
0=no spots; 1=few spots; 2=moderate spots; 3=severe spots
Clusters with rating of 0-1 are commercially desirable to consumers. Clusters with ratings of 2-3 are unacceptable to consumers. In the results below, the average rating for all the clusters in a given treatment group is reported.
The color of banana peels is rated according to a seven stage rating scale: stage 1 (dark green); stage 2 (all light green); stage 3 (half green and half yellow); stage 4 (more yellow than green); stage 5 (green tips and necks); stage 6 (all yellow; maybe light green necks, no green tips); stage 7 (yellow flecked with brown). Consumers generally prefer to eat bananas in stage 5 or stage 6.
Bananas were harvested in Columbia and placed in bags. Three types of bags were used: • (1) non-MAP polymeric film bag, sized to hold 18 kg of bananas (“poly liner”). Each bag has two or more holes, each with diameter of approximately 20 mm or larger. • (2) non-MAP polymeric film bag with 44 large holes (hole diameter 10 mm), sized to hold 1.4 kg of bananas (“T-bag”); and • (3) MAP bag (as described above), sized to hold about 1.4 kg of bananas.
The appropriate weight of bananas was placed in each type of bag after harvest and prior to shipment. Bags were placed in standard cardboard carrying devices. Bananas then were shipped to Philadelphia, Pa., where they were exposed to ethylene using a standard 4 day ripening schedule. Standard commercial methods of shipment and exposure to ethylene were used.
The Test Protocol that was used was as follows. 312 MAP bags were packed. Each bag held approximately 1.4 kg (3 lb) of bananas. Thirteen such bags were packed in each box. Total weight of bananas in MAP bags was approximately 432 kg. Approximately 216 kg of bananas were placed into poly liners, which were placed into boxes identical to those used for the MAP bags. Approximately 216 kg of bananas were placed into T bags, which were placed into boxes identical to those used for the MAP bags. The gross fruit weight of the each box was approximately 19.5 kg (43 lb).
Banana heads (industry nomenclature is rasimo) were harvested at 14 weeks of age (typical for US markets). Heads were cut into large, medium and small hands. The hands were washed in chlorinated water tanks. The washed hands were further broken into clusters. Clusters were packed into bags that each held approximately 1.4 kg (3 lb) or bags that each held approximately 18 kg (40 lb). Bags were placed into standard cardboard boxes, and each box held approximately 18-20 kg. Each box had 8 round holes of diameter 40 mm, plus two larger oval holes that also served as hand-holds for carrying.
The MAP-packaged bananas were packaged as follows: Clusters of approximately 1.4 kg were carefully placed into microperforated bags, and the bags were sealed by twisting the open side of the bag, folding down the twisted end, and placing a rubber band around the twisted and folded end of the bag.
All bananas were quickly cooled to 13.3° C. and held at that temperature for shipping. During shipping, air ventilation was approximately 15%.
Bags were not opened during shipping or ripening. Temperature was monitored in some of the bags by placing a temperature probe in one banana in that bag prior to sealing.
Bananas were ripened in forced-air ripening rooms as follows. On day 1, bananas were kept at 18° C. (64° F.) and exposed to exogenous ethylene (150 ppm for 24 hours). No further exogenous ethylene was used. After day 1, bananas were kept at 18° C. for two days and then at 10° C. for one day. The temperatures given are pulp temperatures and not room temperatures. Humidity was 85% to 95%.
Bananas were then shipped to Spring House, Pa. Bananas arrived at color stage 2.5-3. The bananas were randomly divided into treatment sets as follows: […]

bananas [3] = test: Example 2B: evaluation process B (3 days post-MCP); conditions: MAP-3 and MAP-10 groups (MAP bag, 300 or 1000 ppb 1-MCP); 3 days in bag at 14° C.
Source text: as §1, §2
This Example was the same as Example 2A, except that after exposure to 1-MCP, the bananas remained in their bags in the holding room at 14° C. for 3 days instead of 4 days.

CC1=CC1 [1-MCP, 1-methylcyclopropene]
acceptability of bananas (bananas [1]; MAP bags, day number 17 after treatment, held at 14° C.): still acceptable
onset of sugar spots (bananas [1]; MAP bags, held in bags at 14° C.): showed a delay in the onset of sugar spots
additional time bananas remained acceptable after removal from MAP bags (bananas [1]; after 17 days at 14° C., stored at approx. 22° C.): three
additional shelf life (bananas [2]; 1-MCP alone (no MAP)): 1 to 2 days
Sugar Spot Ratings (bananas [2]; MAP, 300 ppb MCP, Day 0): 0
Sugar Spot Ratings (bananas [2]; MAP, 300 ppb MCP, Day 1): 0
Sugar Spot Ratings (bananas [2]; MAP, 300 ppb MCP, Day 2): 0.00
Sugar Spot Ratings (bananas [2]; MAP, 300 ppb MCP, Day 3): 0.19
Sugar Spot Ratings (bananas [2]; MAP, 300 ppb MCP, Day 4): 0.53
Sugar Spot Ratings (bananas [2]; MAP, 300 ppb MCP, Day 5): 0.92
Sugar Spot Ratings (bananas [2]; MAP, 300 ppb MCP, Day 6): 1.61
Sugar Spot Ratings (bananas [2]; MAP, 1000 ppb MCP, Day 0): 0
Sugar Spot Ratings (bananas [2]; MAP, 1000 ppb MCP, Day 1): 0
Sugar Spot Ratings (bananas [2]; MAP, 1000 ppb MCP, Day 2): 0.11
Sugar Spot Ratings (bananas [2]; MAP, 1000 ppb MCP, Day 3): 0.22
Sugar Spot Ratings (bananas [2]; MAP, 1000 ppb MCP, Day 4): 0.56
Sugar Spot Ratings (bananas [2]; MAP, 1000 ppb MCP, Day 5): 1.56
Sugar Spot Ratings (bananas [2]; MAP, 1000 ppb MCP, Day 6): 1.89
Sugar Spot Ratings (bananas [2]; T bags, 300 ppb MCP, Day 0): 0
Sugar Spot Ratings (bananas [2]; T bags, 300 ppb MCP, Day 1): 0
Sugar Spot Ratings (bananas [2]; T bags, 300 ppb MCP, Day 2): 0
Sugar Spot Ratings (bananas [2]; T bags, 300 ppb MCP, Day 3): 0.94
Sugar Spot Ratings (bananas [2]; T bags, 300 ppb MCP, Day 4): 2.44
Sugar Spot Ratings (bananas [2]; T bags, 300 ppb MCP, Day 5): 2.78
Sugar Spot Ratings (bananas [2]; T bags, 1000 ppb MCP, Day 0): 0
Sugar Spot Ratings (bananas [2]; T bags, 1000 ppb MCP, Day 1): 0
Sugar Spot Ratings (bananas [2]; T bags, 1000 ppb MCP, Day 2): 0
Sugar Spot Ratings (bananas [2]; T bags, 1000 ppb MCP, Day 3): 0.44
Sugar Spot Ratings (bananas [2]; T bags, 1000 ppb MCP, Day 4): 2.06
Sugar Spot Ratings (bananas [2]; T bags, 1000 ppb MCP, Day 5): 2.61
visual quality maintained beyond the standard handling method (bananas [2]; combined treatment 1-MCP and MAP): 10 days
Sugar Spot Ratings (bananas [2]; poly liner, 300 ppb MCP, Day 0): 0
Sugar Spot Ratings (bananas [2]; poly liner, 300 ppb MCP, Day 1): 0
Sugar Spot Ratings (bananas [2]; poly liner, 300 ppb MCP, Day 2): 0.06
Sugar Spot Ratings (bananas [2]; poly liner, 300 ppb MCP, Day 3): 0.33
Sugar Spot Ratings (bananas [2]; poly liner, 300 ppb MCP, Day 4): 2.17
Sugar Spot Ratings (bananas [2]; poly liner, 300 ppb MCP, Day 5): 2.89
Sugar Spot Ratings (bananas [2]; poly liner, 1000 ppb MCP, Day 0): 0
Sugar Spot Ratings (bananas [2]; poly liner, 1000 ppb MCP, Day 1): 0
Sugar Spot Ratings (bananas [2]; poly liner, 1000 ppb MCP, Day 2): 0.00
Sugar Spot Ratings (bananas [2]; poly liner, 1000 ppb MCP, Day 3): 0.33
Sugar Spot Ratings (bananas [2]; poly liner, 1000 ppb MCP, Day 4): 2.67
Sugar Spot Ratings (bananas [2]; poly liner, 1000 ppb MCP, Day 5): 2.89
color and sugar spots versus comparative examples (bananas [3]): same type of improvements over the comparative examples as in Example 2A

From patent publication US9265268B2, “Method of handling bananas” (priority 2009, dated 2016)
